From ChEMBL document CHEMBL1949665, “Pyrazolo[1,5-a]pyridines as p38 kinase inhibitors” (Org Lett, 2005)

Test: Inhibition of p38 kinase

| SMILES | IC50 [nM] |
| --- | --- |
| CN(C)c1cc(-c2c(-c3ccc(F)cc3)nn3ccccc23)ccn1 | 1000 |
| Fc1ccc(-c2nn3ccccc3c2-c2ccnc(NCc3ccccc3)c2)cc1 | 160 |
| Fc1ccc(-c2nn3ccccc3c2-c2ccnc(Nc3ccccc3)c2)cc1 | 160 |
| Nc1cc(-c2c(-c3ccc(F)cc3)nn3cc(C(F)(F)F)ccc23)ccn1 | 100 |
| CC(C)Nc1cc(-c2c(-c3ccc(F)cc3)nn3cc(C(N)=O)ccc23)ccn1 | 80 |
| N#Cc1ccc2c(-c3ccnc(NC4CC4)c3)c(-c3ccc(F)cc3)nn2c1 | 50 |
| Fc1ccc(-c2nn3ccccc3c2-c2ccncn2)cc1 | 630 |
| CN1CCN(CCCNc2nccc(-c3c(-c4ccc(C(F)(F)F)cc4)nn4cc(C(F)(F)F)ccc34)n2)CC1 | 400 |
| OCCCNc1nccc(-c2c(-c3cccc(C(F)(F)F)c3)nn3cc(C(F)(F)F)ccc23)n1 | 200 |
| CN(C)C(=O)c1ccc2c(-c3ccnc(NC4CC4)n3)c(-c3cccc(C(F)(F)F)c3)nn2c1 | 60 |
| CN(C)C(=O)c1ccc2c(-c3ccnc(NC4CC4)n3)c(-c3ccc(F)cc3)nn2c1 | 60 |
| NC(=O)c1ccc2c(-c3ccnc(NC4CC4)n3)c(-c3ccc(F)cc3)nn2c1 | 20 |
| N#Cc1ccc2c(-c3ccnc(NC4CC4)n3)c(-c3ccc(F)cc3)nn2c1 [GW561436X] | 30 |
| Nc1nccc(-c2c(-c3ccc(F)cc3)nn3cc(C(F)(F)F)ccc23)n1 [GW568326X] | 200 |

Other lines, results leading:

| IC50 [nM] | SMILES |
| --- | --- |
| 630 | CN(C)CCCNc1nccc(-c2c(-c3ccc(F)cc3)nn3cc(C(F)(F)F)ccc23)n1 |
| 160 | CCCCNc1cc(-c2c(-c3ccc(F)cc3)nn3cccc(F)c23)ccn1 |
| 100 | COc1cccc2c(-c3ccncc3)c(-c3ccc(F)cc3)nn12 |
| 60 | CCCCNc1cc(-c2c(-c3ccc(F)cc3)nn3c(OC)cccc23)ccn1 |
| 1250 | CN(C)CCCNc1nccc(-c2c(-c3ccc(C(F)(F)F)cc3)nn3cc(C(F)(F)F)ccc23)n1 |
| 500 | Cc1cccc2c(-c3ccncn3)c(-c3ccc(F)cc3)nn12 |
| 160 | CSc1cccc2c(-c3ccncn3)c(-c3ccc(F)cc3)nn12 |
| 130 | CN1CCN(CCCNc2nccc(-c3c(-c4ccc(F)cc4)nn4cc(C(F)(F)F)ccc34)n2)CC1 |
| 100 | Nc1nccc(-c2c(-c3ccc(F)cc3)nn3ccccc23)n1 |
| 100 | CN(C)CCCNc1nccc(-c2c(-c3cccc(Cl)c3)nn3cc(C(F)(F)F)ccc23)n1 |
| 60 | OCCCNc1nccc(-c2c(-c3ccc(F)cc3)nn3cc(C(F)(F)F)ccc23)n1 |
| 40 | OCCCNc1nccc(-c2c(-c3ccc(F)cc3)nn3cc(Cl)ccc23)n1 |
| 40 | CCCCNc1nccc(-c2c(-c3ccc(F)cc3)nn3c(OCCF)cccc23)n1 |
| 40 | CN1CCN(CCCNc2nccc(-c3c(-c4ccc(F)cc4)nn4cc(C(N)=O)ccc34)n2)CC1 |
| 40 | CC(C)Nc1nccc(-c2c(-c3ccc(F)cc3)nn3cc(C(F)(F)F)ccc23)n1 |
| 10 | NC(=O)c1ccc2c(-c3ccnc(NCCCO)n3)c(-c3ccc(F)cc3)nn2c1 [GW581744X] |
